Reference: ChEMBL document CHEMBL1146486, “Biologically active compounds from Aphyllophorales (polypore) fungi” (J Nat Prod, 2004)
Converted amounts (≈) assume the structure as drawn.

What was measured:
[1] = target: Transient receptor potential cation channel subfamily V member 1 (Homo sapiens, UniProt Q8NER1); assay: Inhibition of Vanilloid receptor 1
[2] = Inhibition of lipid peroxidation; type: functional
[3] = Inhibition of pig brain phospholipase; set-up: species or system Sus scrofa
Leuconostoc = assay: Antimicrobial activity against Leuconostoc plantarum; type: functional
Bacillus cereus = assay: Antimicrobial activity against Bacillus cereus; type: functional
Micrococcus = assay: Antimicrobial activity against Micrococcus flavus; type: functional
Staphylococcus aureus = assay: Antimicrobial activity against Staphylococcus aureus; type: functional
Bacillus anthracis = assay: Antimicrobial activity against Bacillus anthracis; type: functional
[4] = Inhibition of almond beta-glucosidase; set-up: species or system Prunus dulcis
[5] = Cytotoxicity against human KATO III cells; type: functional, cell-based, KATO III cell
Aspergillus flavus = assay: Antimicrobial activity against Aspergillus flavus; type: functional
L929 = assay: Cytotoxicity against mouse L929 cells; type: cell-based
Aspergillus niger = assay: Antimicrobial activity against Aspergillus niger; type: functional
Amylomyces rouxii = assay: Antimicrobial activity against Mucor rouxii; type: functional
[6] = Cytotoxicity against human FL cells; type: functional, cell-based
MDCK = assay: Cytotoxicity against MDCK cells; type: cell-based; conditions: Canis lupus familiaris
HeLa = assay: Cytotoxicity against human HeLa cells; type: functional, cell-based
Protease = Protease (Human immunodeficiency virus 1, UniProt Q9YQ12); assay: Inhibition of HIV1 protease
Chain of Protease (Q9YQ12 whole entry): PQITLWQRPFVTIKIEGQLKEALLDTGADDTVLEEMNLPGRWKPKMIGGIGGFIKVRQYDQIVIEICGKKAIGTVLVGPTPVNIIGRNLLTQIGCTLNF

CCRF S-180 = assay: Cytotoxicity against mouse S180 cells; type: functional; conditions: read-out: ED50 (the source's name)
T47D = assay: Cytotoxicity against human T47D cells; type: functional; conditions: read-out: ED50 (the source's name)
[7] = Cytotoxicity against mouse Meth-A cells; type: functional; conditions: read-out: ED50 (the source's name)
[8] = Cytotoxicity against mouse LLC cells; type: functional; conditions: Lewis lung carcinoma, read-out: ED50 (the source's name)
Arthrobacter citreus = assay: Antimicrobial activity against Arthrobacter citreus; type: functional
Kocuria rosea = assay: Antimicrobial activity against Micrococcus roseus; type: functional
[9] = test system: Clavibacter michiganensis subsp. insidiosus; assay: Antimicrobial activity against Corynebacterium insidiosum; type: functional
Micrococcus luteus = assay: Antimicrobial activity against Sarcina lutea; type: functional
Bacillus subtilis = assay: Antimicrobial activity against Bacillus subtilis; type: functional
[10] = Toxicity in mouse at 225 mg/kg; type: organism-based; set-up: dose 225 mg/kg; conditions: in vivo
[11] = Inhibition of DNA synthesis in human ECA cells assessed as blockade of thymidine incorporation; type: functional, cell-based
Alternaria = assay: Antimicrobial activity against Alternaria; type: functional
[12] = Inhibition of NF-kappaB by secreted alkaline phosphatase based reporter gene assay
[13] = Antiplatelet activity assessed as inhibition of ADP-stimulated human platelet aggregation; type: functional
[14] = Antiplatelet activity assessed as inhibition of ADP-stimulated bovine platelet aggregation; type: functional; conditions: Bos taurus
L1210 = assay: Cytotoxicity against mouse L1210 cells; type: functional, cell-based
HL-60 = assay: Cytotoxicity against human HL60 cells
Liver microsomes = assay: Antioxidant activity in rat liver microsomes assessed as inhibition of lipid peroxidation; type: functional, Microsome

Chain of Transient receptor potential cation channel subfamily V member 1 (Q8NER1 whole entry): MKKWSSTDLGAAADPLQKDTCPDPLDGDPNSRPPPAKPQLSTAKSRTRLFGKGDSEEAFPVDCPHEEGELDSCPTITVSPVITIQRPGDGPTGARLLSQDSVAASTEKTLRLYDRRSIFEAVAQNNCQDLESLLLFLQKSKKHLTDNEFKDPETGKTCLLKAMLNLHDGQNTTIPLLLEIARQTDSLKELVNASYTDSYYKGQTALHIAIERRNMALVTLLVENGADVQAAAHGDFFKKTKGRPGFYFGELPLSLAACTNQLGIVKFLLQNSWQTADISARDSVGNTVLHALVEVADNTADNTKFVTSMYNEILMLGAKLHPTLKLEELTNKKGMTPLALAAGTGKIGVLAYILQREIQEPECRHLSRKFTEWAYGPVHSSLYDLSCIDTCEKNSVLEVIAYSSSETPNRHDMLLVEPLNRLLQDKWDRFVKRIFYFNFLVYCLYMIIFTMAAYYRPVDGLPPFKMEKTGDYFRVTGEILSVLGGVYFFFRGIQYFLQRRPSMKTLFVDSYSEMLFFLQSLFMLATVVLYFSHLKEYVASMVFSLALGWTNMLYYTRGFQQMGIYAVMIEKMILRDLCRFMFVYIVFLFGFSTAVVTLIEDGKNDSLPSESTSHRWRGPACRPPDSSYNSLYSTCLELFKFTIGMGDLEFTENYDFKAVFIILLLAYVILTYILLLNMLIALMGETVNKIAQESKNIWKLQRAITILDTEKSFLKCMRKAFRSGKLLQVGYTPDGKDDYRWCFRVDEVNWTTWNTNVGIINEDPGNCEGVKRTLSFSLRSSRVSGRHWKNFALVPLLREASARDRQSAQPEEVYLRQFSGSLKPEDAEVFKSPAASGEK

Cc1cc(O)c(C[C@@H]2[C@@]3(C)CCCC(C)(C)[C@@H]3CC[C@@]2(C)O)c(O)c1 [ALBACONOL]
IC50 [1]: 5 µM

COC1=C(c2ccccc2)C(=O)C(OC)=C(c2ccccc2)C1=O [BETULINAN A]
IC50 [2]: 0.46 µg/mL (≈ 1.44 µM)

COC1=C(c2ccccc2)C(=O)C2=C(C1=O)c1ccccc1CO2 [BETULINAN B]
IC50 [2]: 2.88 µg/mL (≈ 9.05 µM)

CC(=O)O[C@@H]1[C@H](O[C@H](CO)[C@H](O)[C@@H](O)[C@@H](OC(C)=O)C(=O)O[C@H](C)CCCCCCCCCCCCCCCc2cccc(O)c2C(=O)O)O[C@H](CO)[C@@H](O)[C@@H]1O [CALOPOROSIDE]
Ki [3]: 10 µg/mL (≈ 12.2 µM)

Nc1c(C(=O)O)c2nc3c(CO)cccc3oc-2cc1=O [CINNABARIN]
MIC (Leuconostoc): 62.5 µg/mL (≈ 218 µM) | MIC (Bacillus cereus): 62.5 µg/mL (≈ 218 µM)

CC1(C)C[C@H]2[C@@H]([C@H]1O)[C@@]1(C)[C@@]3(O[C@@H]3C(=O)[C@@]13CO3)[C@H]2O [CORIOLIN]
MIC (Micrococcus): 12.5 µg/mL (≈ 44.6 µM) | MIC (Staphylococcus aureus): 12.5 µg/mL (≈ 44.6 µM) | MIC (Bacillus anthracis): 12.5 µg/mL (≈ 44.6 µM)

OC[C@@H]1[C@@H](O)[C@H](O)[C@@H](O)[C@@H]2O[C@H]12 [CYCLOPHELLITOL]
IC50 [4]: 0.8 µg/mL (≈ 4.54 µM)

OCCCc1ccc2oc(-c3ccc4c(c3)OCO4)cc2c1 [DEMETHOXYEGONOL]
IC50 [5]: 27.5 µg/mL (≈ 92.8 µM)

C=C1C(=O)[C@H]2O[C@]23C[C@H]2CC(C)(C)C[C@H]2[C@]13C [DESOXYHYPNOPHILIN]
MIC (Aspergillus flavus): 1 µg/mL (≈ 4.3 µM) | MIC (Bacillus cereus): 1 µg/mL (≈ 4.3 µM) | IC50 (L929): 2.4 µg/mL (≈ 10.3 µM) | MIC (Aspergillus niger): 1 µg/mL (≈ 4.3 µM) | MIC (Amylomyces rouxii): 1 µg/mL (≈ 4.3 µM)

COc1cc(CCCO[C@@H]2O[C@H](CO)[C@@H](O)[C@H](O)[C@H]2O)cc2cc(-c3ccc4c(c3)OCO4)oc12 [EGONOL GLUCOSIDE]
IC50 [5]: 24.9 µg/mL (≈ 51 µM)

COc1cc(CCCO)cc2cc(-c3ccc4c(c3)OCO4)oc12 [EGONOL]
IC50 [5]: 28.8 µg/mL (≈ 88.2 µM)

O=Cc1ccc(O)c(O)c1C=O [FOMECIN B]
IC50 [6]: 17 µg/mL (≈ 102 µM) | IC50 (MDCK): 14 µg/mL (≈ 84.3 µM) | IC50 (HeLa): 20 µg/mL (≈ 120 µM)

C/C(=C\CC[C@@H](C)[C@H]1CC(=O)[C@@]2(C)C3=C(C(=O)C[C@]12C)[C@@]1(C)CC[C@H](O)C(C)(C)[C@@H]1C[C@@H]3O)C(=O)O [GANODERIC ACID BETA]
IC50 (Protease): 20 µM

C=C1[C@@H](O)[C@H]2O[C@]23C[C@H]2CC(C)(C)[C@H](O)[C@H]2[C@]13C [HYPNOPHILIN 1]
IC50 (L929): 0.9 µg/mL (≈ 3.6 µM)

C=C1C(=O)[C@H]2O[C@]23C[C@H]2CC(C)(C)[C@H](O)[C@H]2[C@]13C [HYPNOPHILIN]
MIC (Aspergillus flavus): 1 µg/mL (≈ 4.03 µM) | MIC (Bacillus cereus): 1 µg/mL (≈ 4.03 µM) | MIC (Aspergillus niger): 1 µg/mL (≈ 4.03 µM) | MIC (Amylomyces rouxii): 1 µg/mL (≈ 4.03 µM)

C=C(CC[C@@H](C)[C@H]1CC[C@@]2(C)C3=C(CC[C@]12C)[C@@]1(C)CC[C@H](O)C(C)(C)C1CC3=O)C(C)C=O (stereo partly specified) [LUCIALDEHYDE C]
EC50 (CCRF S-180): 7.1 µg/mL (≈ 15.1 µM) | EC50 (T47D): 4.7 µg/mL (≈ 10 µM) | EC50 [7]: 3.8 µg/mL (≈ 8.11 µM) | EC50 [8]: 10.7 µg/mL (≈ 22.8 µM)

CCCCCCCC/C=C\CCCCCCCc1cc(O)cc(O)c1C(=O)O [MERULINIC ACID A]
MIC (Arthrobacter citreus): 0.4 µg/mL (≈ 1.02 µM) | MIC (Kocuria rosea): 0.4 µg/mL (≈ 1.02 µM) | MIC [9]: 0.4 µg/mL (≈ 1.02 µM) | MIC (Micrococcus luteus): 0.4 µg/mL (≈ 1.02 µM) | MIC (Bacillus subtilis): 0.4 µg/mL (≈ 1.02 µM)

CC(O)CCCCCC/C=C\CCCCCCCc1cccc(O)c1C(=O)O (stereo unspecified) [MERULINIC ACID B]
MIC (Arthrobacter citreus): 0.4 µg/mL (≈ 1.02 µM) | MIC (Kocuria rosea): 0.4 µg/mL (≈ 1.02 µM) | MIC [9]: 0.4 µg/mL (≈ 1.02 µM) | MIC (Micrococcus luteus): 0.4 µg/mL (≈ 1.02 µM) | MIC (Bacillus subtilis): 0.4 µg/mL (≈ 1.02 µM)

CCCCCCCC/C=C\CCCCCCCc1cccc(O)c1C(=O)O [MERULINIC ACID C]
MIC (Arthrobacter citreus): 0.4 µg/mL (≈ 1.07 µM) | MIC (Kocuria rosea): 0.4 µg/mL (≈ 1.07 µM) | MIC [9]: 0.4 µg/mL (≈ 1.07 µM) | MIC (Micrococcus luteus): 0.4 µg/mL (≈ 1.07 µM) | MIC (Bacillus subtilis): 0.4 µg/mL (≈ 1.07 µM)

C=C1C(=O)[C@H](OC(C)=O)/C=C(\C)C(=O)[C@H](O)[C@@H]2[C@@H]1CC2(C)C [NAEMATOLON]
LD50 [10]: 225 mg/kg | IC50 [11]: 2 µg/mL (≈ 6.53 µM)

Cc1oc(=O)c2c(O)cccc2c1C [OOSPOLACTONE]
MIC (Alternaria): 12.5 µg/mL (≈ 65.7 µM)

CC(C)=C[C@H](O)C1=C[C@@H](O)[C@@H]2O[C@@H]2C1=O [PANEPOXYDONE]
IC50 [12]: 1.5 µg/mL (≈ 7.14 µM)

CC1(C)CCC(=O)[C@@H]2[C@@H](C=O)C(C=O)=CC[C@@H]21 [PANUDIAL]
IC30 [13]: 6 µg/mL (≈ 25.6 µM) | IC30 [14]: 2.5 µg/mL (≈ 10.7 µM)

CC(C)C(C)C[C@@H](O)[C@](C)(O)[C@H]1CC[C@@]2(O)C3=CC(=O)[C@@H]4C[C@@H](O)[C@@H](O)C[C@]4(C)[C@H]3CC[C@]12C (stereo partly specified) [POLYPORUSTERONE A]
IC50 (L1210): 10 µg/mL (≈ 20.9 µM)

C=C(C[C@@H](O)[C@](C)(O)[C@H]1CC[C@@]2(O)C3=CC(=O)[C@@H]4C[C@@H](O)[C@@H](O)C[C@]4(C)[C@H]3CC[C@]12C)C(C)C [POLYPORUSTERONE B]
IC50 (L1210): 10 µg/mL (≈ 21 µM)

CC(C)C(C)C1O[C@H]1[C@](C)(O)[C@H]1CC[C@@]2(O)C3=CC(=O)[C@@H]4C[C@@H](O)[C@@H](O)C[C@]4(C)[C@H]3CC[C@]12C (stereo partly specified) [POLYPORUSTERONE C]
IC50 (L1210): 10 µg/mL (≈ 21 µM)

C=C([C@H](O)C[C@H](C)C(C)C)[C@H]1CC[C@@]2(O)C3=CC(=O)[C@@H]4C[C@@H](O)[C@@H](O)C[C@]4(C)[C@H]3CC[C@]12C [POLYPORUSTERONE D]
IC50 (L1210): 10 µg/mL (≈ 21.7 µM)

CC(C)[C@@H](C)[C@@H]1O[C@H]1[C@@H](C)[C@H]1CC[C@@]2(O)C3=CC(=O)[C@@H]4C[C@@H](O)[C@@H](O)C[C@]4(C)[C@H]3CC[C@]12C [POLYPORUSTERONE E]
IC50 (L1210): 10 µg/mL (≈ 21.7 µM)

CC(C)[C@@H](C)C[C@@H](O)[C@@H](C)[C@H]1CC[C@@]2(O)C3=CC(=O)[C@@H]4C[C@@H](O)[C@@H](O)C[C@]4(C)[C@H]3CC[C@]12C [POLYPORUSTERONE F]
IC50 (L1210): 10 µg/mL (≈ 21.6 µM)

C=C(C[C@@H](O)[C@@H](C)[C@H]1CC[C@@]2(O)C3=CC(=O)[C@@H]4C[C@@H](O)[C@@H](O)C[C@]4(C)[C@H]3CC[C@]12C)C(C)C [POLYPORUSTERONE G]
IC50 (L1210): 10 µg/mL (≈ 21.7 µM)

C=C(C)[C@@H]1CCC2=C(CC[C@]3(C)[C@@H]([C@@H](CCC=C(C)C)C(=O)O)[C@H](O)C[C@@]23C)[C@@]1(C)CCC(=O)O [PORICOIC ACID G]
GI50 (HL-60): 0.0393 µM

CC1(C)C=Cc2ccc(O[C@@H]3O[C@H](CO)[C@@H](O)[C@H]3O)cc2O1 [STERIN A]
IC50 (Liver microsomes): 8 µg/mL (≈ 25.9 µM)
